Test results from patent publication US4879421A, “Method for preparing optically active binaphthol and spiroibiindanol” (General Electric Company, priority 1988, dated 1989).

These compounds were tested against T1, cholesterol esterase (Bos taurus, UniProt P30122) (assay: Cholesterol esterase catalyzed hydrolysis of esters, relative rate by pH stat). Conditions: commercial cholesterol esterase, 0.1 N NaOH to hold pH 7.0, emulsion of ester (1.0 mmol) in ethyl ether (10 mL) and 10 mM phosphate buffer pH 7.0 with 30 mg sodium taurocholate.
T1 construct: assayed with taurocholate in ether/phosphate emulsion
T1 sequence (P30122 19-597): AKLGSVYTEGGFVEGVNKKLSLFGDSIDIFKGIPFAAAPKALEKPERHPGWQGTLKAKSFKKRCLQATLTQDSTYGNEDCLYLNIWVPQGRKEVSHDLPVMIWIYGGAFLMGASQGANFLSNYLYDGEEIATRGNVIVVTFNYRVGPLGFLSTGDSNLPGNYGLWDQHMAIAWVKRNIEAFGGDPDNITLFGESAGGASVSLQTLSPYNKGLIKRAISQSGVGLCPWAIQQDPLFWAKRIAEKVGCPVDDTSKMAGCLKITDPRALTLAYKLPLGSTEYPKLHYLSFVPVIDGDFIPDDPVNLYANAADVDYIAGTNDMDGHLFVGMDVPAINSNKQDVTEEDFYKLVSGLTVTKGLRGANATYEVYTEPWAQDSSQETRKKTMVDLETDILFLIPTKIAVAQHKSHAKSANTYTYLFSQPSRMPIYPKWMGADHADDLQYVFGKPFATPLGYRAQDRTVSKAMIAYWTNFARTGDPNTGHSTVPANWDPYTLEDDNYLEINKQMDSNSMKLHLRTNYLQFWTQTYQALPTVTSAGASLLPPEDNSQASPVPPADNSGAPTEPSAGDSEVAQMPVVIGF
Format: biochemical
Procedure: In similar manner as Example 2 commercial samples of cholesterol esterase are shown to catalyze the enantiospecific hydrolysis of diesters of 1,1'-bi-2-naphthol listed in the following Table.
^(a) The relative rate of hydrolysis is measured using a pH stat whic
measures the amount of base (0.1 N NaOH) required to maintain the pH at
7.0 for an emulsion of ester (1.0 mmol) dissolved in ethyl ether (10
milliliter) and aqueous buffer (10 milliliters of 10 mM phosphate, pH 7.0
containing 30 milligrams sodium taurocholate).

In order of rising “Relative Rate (relative rate of hydrolysis)” value:
1. CCCCCCCC(=O)Oc1ccc2ccccc2c1-c1c(OC(=O)CCCCCCC)ccc2ccccc12 [octanoate]  0.4
2. CCCC(=O)Oc1ccc2ccccc2c1-c1c(OC(=O)CCC)ccc2ccccc12 [Butyrate]  0.5
3. CCCCCC(=O)Oc1ccc2ccccc2c1-c1c(OC(=O)CCCCC)ccc2ccccc12 [hexanoate]  0.5
4. CC(=O)O[C@H]1CC[C@@]2(C)C(=CC[C@H]3[C@@H]4CC[C@H]([C@H](C)CCCC(C)C)[C@@]4(C)CC[C@@H]32)C1 [reference compound]  1.0
5. CCC(=O)Oc1ccc2ccccc2c1-c1c(OC(=O)CC)ccc2ccccc12  1.1
6. CC(=O)Oc1ccc2ccccc2c1-c1c(OC(C)=O)ccc2ccccc12 [acetate]  1.1
